Test results from patent publication US20200157048A1, “(2E,4E)-5-PHENYL-PENTA-2,4-DIEN-1-ONE DERIVATIVE” (BIOWAY., INC, priority 2018, published 2020).

system: 3T3-L1 preadipocytes; test: Triglyceride content after induction of 3T3-L1 preadipocyte differentiation; type: cell-based, mouse; conditions: differentiated 3T3-L1 cells; predetermined concentration of test material
Procedure: (§1) 3T3-L1 mouse preadipocytes (American Type Culture Collection) were incubated in an incubator set to 37° C., humidity of 95% and 5% CO2. The 3T3-L1 mouse preadipocytes were sufficiently proliferated using a proliferation medium (Dulbecco's modified Eagle's medium (DMEM) supplemented with 5% fetal bovine serum (FBS), 100 U/mL of penicillin and 100 μg/mL of streptomycin), and treated with a differentiation medium (DMEM containing 5% FBS, 0.5 mM 3-isobutyl-1-methylxanthine, […] dexamethasone and 10 μg/mL insulin) for 4 days. Afterward, the 3T3-L1 mouse preadipocytes were treated with an induction medium (DMEM containing 5% FBS and 10 μg/mL insulin, DMEM containing 5% FBS) for 2 days, and to maintain differentiated adipocytes until the end of the experiment, the induction medium was replaced every day. The 3T3-L1 cells were used in Experimental Examples 1, 2, and 3.
(§2) Preadipocytes, 3T3-L1 cells, were incubated in a dish having a diameter of 10 cm^2 by the same method as described in Experimental Example 1, and then treated with a predetermined concentration of a test material diluted with a culture medium. After treatment, a triglyceride content was confirmed using an assay kit.

Row | Structure (SMILES) | triglyceride content (FIG. 3)
1 | CSc1ccc(/C=C/C=C/C(=O)N2CCOCC2)cc1 [R-30, (2E,4E)-5-(4-(methylthio)phenyl)-1-morpholinopenta-2,4-dien-1-one] | lower than that of the test group treated with R-3
2 | CSc1ccc(/C=C/C=C/C(=O)N2CCC(NC(C)=O)CC2)cc1 [R-11, N-(1-((2E,4E)-5-(4-(methylthio)phenyl)penta-2,4-dienoyl)piperidine-4-yl)acetamide] | lower than that of the test group treated with R-3
3 | COc1ccc(/C=C/C=C/C(=O)N2CCN(C)CC2)cc1 [R-15, (2E,4E)-5-(4-methoxyphenyl)-1-(4-methylpiperazine-1-yl)penta-2,4-dien-1-one] | lower than that of the test group treated with R-3
4 | COC1CCN(C(=O)/C=C/C=C/c2ccc(SC)cc2)CC1 [R-9, (2E,4E)-1-(4-methoxypiperidine-1-yl)-5-(4-(methylthio)phenyl)penta-2,4-dien-1-one] | lower than that of the test group treated with R-3
5 | CSc1ccc(/C=C/C=C/C(=O)N2CCC(O)CC2)cc1 [R-8, (2E,4E)-1-(4-hydroxypiperidine-1-yl)-5-(4-(methylthio)phenyl)penta-2,4-dien-1-one] | lower than that of the test group treated with R-3
6 | CSc1ccc(/C=C/C=C/C(=O)N2CCCC(O)C2)cc1 (centres unmarked) [R-7, (2E,4E)-1-(3-hydroxypiperidine-1-yl)-5-(4-(methylthio)phenyl)penta-2,4-dien-1-one] | lower than that of the test group treated with R-3
7 | CSc1ccc(/C=C/C=C/C(=O)N2CCN(C(C)=O)CC2)cc1 [R-17, (2E,4E)-1-(4-acetylpiperazine-1-yl)-5-(4-(methylthio)phenyl)penta-2,4-dien-1-one] | lower than that of the test group treated with R-3
8 | CSc1ccc(/C=C/C=C/C(=O)N2CCN(C(=O)OC(C)(C)C)CC2)cc1 [R-28, Tert-butyl 4-((2E,4E)-5-(4-(methylthio)phenyl)penta-2,4-dienoyl)piperazine-1-carboxylate] | lower than that of the test group treated with R-3
9 | COc1ccc(/C=C/C=C/C(=O)N2CCOCC2)cc1 [R-29, (2E,4E)-5-(4-methoxyphenyl)-1-morpholinopenta-2,4-dien-1-one] | lower than that of the test group treated with R-3

system: 3T3-L1 preadipocytes; test: Glycerol content after induction of 3T3-L1 preadipocyte differentiation; type: cell-based, mouse; conditions: differentiated 3T3-L1 cells; predetermined concentration of test material
Procedure: as §1
as §2, with “glycerol” for “triglyceride”

Row | Structure (SMILES) | glycerol content (FIG. 4)
10 | CSc1ccc(/C=C/C=C/C(=O)N2CCOCC2)cc1 [R-30, (2E,4E)-5-(4-(methylthio)phenyl)-1-morpholinopenta-2,4-dien-1-one] | lower than that of the test group treated with R-3
11 | CSc1ccc(/C=C/C=C/C(=O)N2CCC(NC(C)=O)CC2)cc1 [R-11, N-(1-((2E,4E)-5-(4-(methylthio)phenyl)penta-2,4-dienoyl)piperidine-4-yl)acetamide] | lower than that of the test group treated with R-3
12 | COc1ccc(/C=C/C=C/C(=O)N2CCN(C)CC2)cc1 [R-15, (2E,4E)-5-(4-methoxyphenyl)-1-(4-methylpiperazine-1-yl)penta-2,4-dien-1-one] | lower than that of the test group treated with R-3
13 | COC1CCN(C(=O)/C=C/C=C/c2ccc(SC)cc2)CC1 [R-9, (2E,4E)-1-(4-methoxypiperidine-1-yl)-5-(4-(methylthio)phenyl)penta-2,4-dien-1-one] | lower than that of the test group treated with R-3
14 | CSc1ccc(/C=C/C=C/C(=O)N2CCC(O)CC2)cc1 [R-8, (2E,4E)-1-(4-hydroxypiperidine-1-yl)-5-(4-(methylthio)phenyl)penta-2,4-dien-1-one] | lower than that of the test group treated with R-3
15 | CSc1ccc(/C=C/C=C/C(=O)N2CCCC(O)C2)cc1 (centres unmarked) [R-7, (2E,4E)-1-(3-hydroxypiperidine-1-yl)-5-(4-(methylthio)phenyl)penta-2,4-dien-1-one] | lower than that of the test group treated with R-3
16 | CSc1ccc(/C=C/C=C/C(=O)N2CCN(C(C)=O)CC2)cc1 [R-17, (2E,4E)-1-(4-acetylpiperazine-1-yl)-5-(4-(methylthio)phenyl)penta-2,4-dien-1-one] | lower than that of the test group treated with R-3
17 | CSc1ccc(/C=C/C=C/C(=O)N2CCN(C(=O)OC(C)(C)C)CC2)cc1 [R-28, Tert-butyl 4-((2E,4E)-5-(4-(methylthio)phenyl)penta-2,4-dienoyl)piperazine-1-carboxylate] | lower than that of the test group treated with R-3
18 | COc1ccc(/C=C/C=C/C(=O)N2CCOCC2)cc1 [R-29, (2E,4E)-5-(4-methoxyphenyl)-1-morpholinopenta-2,4-dien-1-one] | lower than that of the test group treated with R-3

target: T1, SIRT1 (Homo sapiens, UniProt Q96EB6); test: SIRT1 direct fluorescent assay; type: biochemical; conditions: 2 μM
T1 construct: purchased Cayman (Ann Arbor, Mich., USA)
T1 sequence (Q96EB6 1-747): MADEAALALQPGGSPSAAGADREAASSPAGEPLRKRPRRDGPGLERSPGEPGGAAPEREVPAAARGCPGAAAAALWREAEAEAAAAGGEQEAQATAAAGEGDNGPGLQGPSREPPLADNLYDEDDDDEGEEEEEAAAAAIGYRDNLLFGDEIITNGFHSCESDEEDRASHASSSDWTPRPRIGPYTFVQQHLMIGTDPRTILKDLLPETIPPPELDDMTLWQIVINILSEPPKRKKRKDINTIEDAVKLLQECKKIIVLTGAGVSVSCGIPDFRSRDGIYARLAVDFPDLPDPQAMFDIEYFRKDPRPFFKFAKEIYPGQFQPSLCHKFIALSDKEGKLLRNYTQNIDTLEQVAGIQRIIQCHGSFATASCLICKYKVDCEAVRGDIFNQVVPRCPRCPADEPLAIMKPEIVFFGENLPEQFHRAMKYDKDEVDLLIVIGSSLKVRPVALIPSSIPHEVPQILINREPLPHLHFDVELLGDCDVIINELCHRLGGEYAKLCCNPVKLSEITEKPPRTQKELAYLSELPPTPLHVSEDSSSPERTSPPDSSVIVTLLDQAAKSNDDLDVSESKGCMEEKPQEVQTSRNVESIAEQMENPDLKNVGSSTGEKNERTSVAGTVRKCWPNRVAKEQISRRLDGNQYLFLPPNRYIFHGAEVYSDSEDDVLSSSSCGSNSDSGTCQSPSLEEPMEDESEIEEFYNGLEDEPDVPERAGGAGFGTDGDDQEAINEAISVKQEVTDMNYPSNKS
Procedure: All materials were provided from a Sirt1 direct fluorescent screening assay kit (Cayman, Ann Arbor, Mich., USA).
SIRT1, p53 conjugated aminomethyl coumarin (AMC) protein, and 3 mM NAD^+ were added to a diluted analysis buffer (50 mM Tris-HCl, pH 8.0, 137 mM NaCl, 2.7 mM KCl, and 1 mM MgCl2).
25 μL of the analysis buffer, 5 μL of diluted SIRT1, and 5 μL of a solvent were added to each of three 100% initial activity wells of a 96-well plate.
30 μL of the analysis buffer and 5 μL of a solvent were added to each of three background wells of the 96-well plate.
25 μL of the analysis buffer, 5 μL of diluted SIRT1, and 5 μL of a diluted test compound were added to each of three sample wells of the 96-well plate. The final DMSO concentration was less than 2%.
15 μL of a 3 mM NAD^+-containing substrate solution was added to all wells to begin the reaction. The 96-well plate was covered with a plate cover, and then incubated in a shaker at room temperature (25 to 30° C.) for 45 minutes.
A stop/developing solution was prepared. To prepare the final 5 mL solution, 200 μL of nicotinamide (NAM, Sigma-Aldrich) was added to a color developing powder weighing 30 mg, 4.8 mL of a diluted analysis buffer was added thereto, and the resulting mixture was stirred until the powder became a solution.
The plate cover was removed, and 50 μL of the stop/developing solution was added to each well.
The 96-well plate was covered with a plate cover, and incubated at room temperature (25 to 30° C.) for 30 minutes.
The plate cover was removed, and the plate was read using Cytation 5 at an excitation wavelength of 360 nm and an emission wavelength of 450 nm.
The mean fluorescence of each sample was measured.
The fluorescence of the background wells was subtracted from the fluorescence of the 100% initial activity wells and sample wells.
To determine the percent of each sample, each sample value was subtracted from the 100% initial activity value, and the resulting value was divided by the 100% initial activity value and then multiplied by 100 and added to 100, which was expressed as a percentage.

Row | increase of SIRT1 activity (FIG. 18) | Structure (SMILES)
19 | about 5% | CCOC(=O)N1CCN(C(=O)/C=C/C=C/c2cccc(OC)c2)CC1 [R-22, Ethyl ((2E,4E)-5-(3-methoxyphenyl)penta-2,4-dienoyl)piperazine-1-carboxylate]

same assay, conditions: 10 μM

Row | increase of SIRT1 activity (FIG. 18) [%] | Structure (SMILES)
20 | ≥ 10 | COc1ccc(/C=C/C=C/C(=O)N2CCN(C(=O)OC(C)C)CC2)cc1 [R-26, Isopropyl 4-((2E,4E)-5-(4-methoxyphenyl)penta-2,4-dienoyl)piperazine-1-carboxylate]

system: 3T3-L1 preadipocytes; test: Oil-Red-O staining of lipid droplets after induction of 3T3-L1 preadipocyte differentiation; type: cell-based, mouse; conditions: 50 μM test material; differentiated 3T3-L1 cells
Procedure: as §1
To confirm capacity of inhibiting the formation of lipid droplets of a test material, 3T3-L1 cells, which are preadipocytes, were induced to differentiate into adipocytes, and then the lipid droplets were stained through the Oil-Red-O staining.
First, after preadipocytes, 3T3-L1 cells, were incubated in a dish having a diameter of 10 cm^2, excluding G1 and G2, the cells were treated with 50 μM of a test material previously diluted with a culture medium (refer to Table 2).
Next, for staining, first, the cell supernatant present in a well was removed, and fixed with 4% paraformaldehyde. Afterward, after adding a 100% 1,2-propanediol dehydration solution, the resulting sample was incubated for 5 minutes, and then an Oil-Red-O stain solution was added for staining of lipid droplets. After the Oil-Red-O staining, an 85% 1,2-propanediol stain differential solution was added for washing.
Finally, after filling a well with D.W. without drying the stained well, the formation of lipid droplets was confirmed by observation using a microscope.
After confirming the formation of lipid droplets using Oil-Red-O staining, a part stained with isopropanol was dissolved, and the degree of staining lipid droplets was confirmed by absorbance at 540 nm. The increase/decrease rate, compared to the normal control, was evaluated using an optical density (OD) value.

Row | Structure (SMILES) | amount of stained lipid droplets (Oil-Red-O dissolved in isopropanol, absorbance at 540 nm, FIG. 2)
21 | CSc1ccc(/C=C/C=C/C(=O)N2CCOCC2)cc1 [R-30, (2E,4E)-5-(4-(methylthio)phenyl)-1-morpholinopenta-2,4-dien-1-one] | less than that of the test groups treated with R-3 and 4
22 | CSc1ccc(/C=C/C=C/C(=O)N2CCC(NC(C)=O)CC2)cc1 [R-11, N-(1-((2E,4E)-5-(4-(methylthio)phenyl)penta-2,4-dienoyl)piperidine-4-yl)acetamide] | less than that of the test groups treated with R-3 and 4
23 | COc1ccc(/C=C/C=C/C(=O)N2CCN(C)CC2)cc1 [R-15, (2E,4E)-5-(4-methoxyphenyl)-1-(4-methylpiperazine-1-yl)penta-2,4-dien-1-one] | less than that of the test groups treated with R-3 and 4
24 | COC1CCN(C(=O)/C=C/C=C/c2ccc(SC)cc2)CC1 [R-9, (2E,4E)-1-(4-methoxypiperidine-1-yl)-5-(4-(methylthio)phenyl)penta-2,4-dien-1-one] | less than that of the test groups treated with R-3 and 4
25 | CSc1ccc(/C=C/C=C/C(=O)N2CCC(O)CC2)cc1 [R-8, (2E,4E)-1-(4-hydroxypiperidine-1-yl)-5-(4-(methylthio)phenyl)penta-2,4-dien-1-one] | less than that of the test groups treated with R-3 and 4
26 | CSc1ccc(/C=C/C=C/C(=O)N2CCCC(O)C2)cc1 (centres unmarked) [R-7, (2E,4E)-1-(3-hydroxypiperidine-1-yl)-5-(4-(methylthio)phenyl)penta-2,4-dien-1-one] | less than that of the test groups treated with R-3 and 4
27 | CSc1ccc(/C=C/C=C/C(=O)N2CCN(C(C)=O)CC2)cc1 [R-17, (2E,4E)-1-(4-acetylpiperazine-1-yl)-5-(4-(methylthio)phenyl)penta-2,4-dien-1-one] | less than that of the test groups treated with R-3 and 4
28 | CSc1ccc(/C=C/C=C/C(=O)N2CCN(C(=O)OC(C)(C)C)CC2)cc1 [R-28, Tert-butyl 4-((2E,4E)-5-(4-(methylthio)phenyl)penta-2,4-dienoyl)piperazine-1-carboxylate] | less than that of the test groups treated with R-3 and 4
29 | COc1ccc(/C=C/C=C/C(=O)N2CCOCC2)cc1 [R-29, (2E,4E)-5-(4-methoxyphenyl)-1-morpholinopenta-2,4-dien-1-one] | less than that of the test groups treated with R-3 and 4
